Measured values published in patent publication US20020137929A1, “1 - (3-heterocyclylphenyl) isothiourea, -isourea, -guanidine and -amidine herbicidal agents” (Intellectual Property Department, BASF Aktiengesellschaft, priority 1998, published 2002).

Experiments:
ABUTH (Velvetleaf) = test: Postemergence herbicidal evaluation; assay type: in vivo, Abutilon theophrasti
Method in brief: (§1)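 ~2-wk seedlings; postemergence spray, 40 psi; vehicle 1:1 acetone:water + 0.5% Tween 20; rate ≈0.0156–0.500 kg/ha; greenhouse hold; scored 4–5 wk after treatment, 0–9 scale vs control; repeat tests averaged.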

AMBEL (Ragweed, Common) [1] = test: Postemergence herbicidal evaluation; assay type: in vivo, Ambrosia artemisifolia
Method in brief: as §1

[2] = tested on: CHEAL (Lambsquarters, Common); test: Postemergence herbicidal evaluation; assay type: in vivo, Chenopodium album
Method in brief: as §1

ECHCG (Barnyardgrass) = test: Postemergence herbicidal evaluation; assay type: in vivo, Echinochloa crus-galli
Method in brief: as §1

[3] = tested on: GLXMAW (Soybean, Williams); test: Postemergence herbicidal evaluation; assay type: in vivo, Glycine max, (L.) Merr. cv Williams
Method in brief: as §1

ORYSAT (Rice, Tebonnet) = test: Postemergence herbicidal evaluation; assay type: in vivo, Oryza sativa, (L.) Tebonnet
Method in brief: as §1

ZEAMX (Corn, Field) = test: Postemergence herbicidal evaluation; assay type: in vivo, Zea mays
Method in brief: as §1

AMBEL (Ragweed, Common) [4] = test: Preemergence herbicidal evaluation; assay type: in vivo, Ambrosia artemisifolia; details: rated 4-5 weeks after treatment
Method in brief: (§2)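 Scores use a 0–9 visual scale covering stand, vigor, malformation, size and chlorosis relative to controls, rated four to five weeks after treatment. Before emergence, soil-planted seeds were sprayed with compound in aqueous acetone at roughly 0.0156–0.500 kg/ha and held in the greenhouse.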

CASOB (Sicklepod) = test: Preemergence herbicidal evaluation; assay type: in vivo, Cassia obtusifolia; details: rated 4-5 weeks after treatment
Method in brief: as §2

[5] = tested on: CHEAL (Lambsquarters, Common); test: Preemergence herbicidal evaluation; assay type: in vivo, Chenopodium album; details: rated 4-5 weeks after treatment
Method in brief: as §2

GALAP (Galium) = test: Preemergence herbicidal evaluation; assay type: in vivo, Galium aparine; details: rated 4-5 weeks after treatment
Method in brief: as §2

CYPSE (Flatsedge) [6] = test: Preemergence weed control under flooded paddy conditions; assay type: in vivo, Cyperus serotinus; details: rated 3-4 weeks after treatment
Method in brief: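 Ratings on a 0-9 visual scale cover stand, vigor, malformation, size, chlorosis and overall appearance relative to a control, taken three to four weeks post-treatment. Application was into flood water over freshly sown silt loam at roughly 0.0313 to 0.500 kg/ha.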

CYPIR (Rice Flatsedge) = test: Postemergence weed control under flooded paddy conditions; assay type: in vivo, Cyperus iria; details: postemergence weeds, 3-4 weeks after treatment
Method in brief: (§3)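 Injury ratings (0–9 scale covering stand, vigor, malformation, size, chlorosis and overall appearance versus control) were made three to four weeks after treatment. Test material, about 0.0313 to 0.500 kg/ha a.i. in 50/50 v/v aqueous/acetone, was added to flood water 1.5 to 3 cm deep over 3 to 5 cm weeds and 1.5 to 2.5 leaf rice.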

CYPSE (Flatsedge) [7] = test: as above; assay type: in vivo, Cyperus serotinus; details: postemergence weeds, 3-4 weeks after treatment
Method in brief: as §3

Question: Which “Postemergence herbicidal rating ABUTH” value (ABUTH (Velvetleaf); Rate 0.0158 kg/ha) does the source give for `C[C@@H](C(=O)O)N1C(=O)CS/C1=N/c1cc(-n2c(=O)cc(C(F)(F)F)n(C)c2=O)c(F)cc1Cl` [Compound 51, 2-{{2-Chloro-5-[3,6-dihydro-3-methyl-2,6-dioxo-4-(trifluoromethyl)-1(2H)-pyrimidinyl]-4-fluoro-phenyl}imino}-α-methyl-4-oxo-3-thiazolidineacetic acid, L-] here?
Answer: 9.0

Question: What about the “Postemergence herbicidal rating ABUTH” value (ABUTH (Velvetleaf); Rate 0.0315 kg/ha) of the same molecule?
Answer: 9.0

Question: And the “Postemergence herbicidal rating ABUTH” value (ABUTH (Velvetleaf); Rate 0.0630 kg/ha)?
Answer: 9.0

Question: What about the “Postemergence herbicidal rating AMBEL” value (AMBEL (Ragweed, Common) [1]; Rate 0.0158 kg/ha) of the same molecule?
Answer: 6.0

Question: And the “Postemergence herbicidal rating AMBEL” value (AMBEL (Ragweed, Common) [1]; Rate 0.0315 kg/ha)?
Answer: 6.0

Question: And the “Postemergence herbicidal rating AMBEL” value (AMBEL (Ragweed, Common) [1]; Rate 0.0630 kg/ha)?
Answer: 9.0

Question: What about the “Postemergence herbicidal rating CHEAL” value ([2]; Rate 0.0158 kg/ha) of the same molecule?
Answer: 9.0

Question: And the “Postemergence herbicidal rating CHEAL” value ([2]; Rate 0.0315 kg/ha)?
Answer: 9.0

Question: What about the “Postemergence herbicidal rating CHEAL” value ([2]; Rate 0.0630 kg/ha) of the same molecule?
Answer: 9.0

Question: And the “Postemergence herbicidal rating ECHCG” value (ECHCG (Barnyardgrass); Rate 0.0158 kg/ha)?
Answer: 4.0

Question: What about the “Postemergence herbicidal rating ECHCG” value (ECHCG (Barnyardgrass); Rate 0.0315 kg/ha) of the same molecule?
Answer: 5.0

Question: And the “Postemergence herbicidal rating ECHCG” value (ECHCG (Barnyardgrass); Rate 0.0630 kg/ha)?
Answer: 9.0

Question: And the “Postemergence herbicidal rating GLXMAW” value ([3]; Rate 0.0158 kg/ha)?
Answer: 6.0

Question: And the “Postemergence herbicidal rating GLXMAW” value ([3]; Rate 0.0315 kg/ha)?
Answer: 8.0

Question: And the “Postemergence herbicidal rating GLXMAW” value ([3]; Rate 0.0630 kg/ha)?
Answer: 8.0

Question: And the “Postemergence herbicidal rating ORYSAT” value (ORYSAT (Rice, Tebonnet); Rate 0.0158 kg/ha)?
Answer: 2.0

Question: And the “Postemergence herbicidal rating ORYSAT” value (ORYSAT (Rice, Tebonnet); Rate 0.0315 kg/ha)?
Answer: 3.5

Question: What about the “Postemergence herbicidal rating ORYSAT” value (ORYSAT (Rice, Tebonnet); Rate 0.0630 kg/ha) of the same molecule?
Answer: 4.0

Question: And the “Postemergence herbicidal rating ZEAMX” value (ZEAMX (Corn, Field); Rate 0.0158 kg/ha)?
Answer: 7.0

Question: What about the “Postemergence herbicidal rating ZEAMX” value (ZEAMX (Corn, Field); Rate 0.0315 kg/ha) of the same molecule?
Answer: 7.5

Question: And the “Postemergence herbicidal rating ZEAMX” value (ZEAMX (Corn, Field); Rate 0.0630 kg/ha)?
Answer: 7.5

Question: And the “Preemergence herbicidal rating AMBEL” value (AMBEL (Ragweed, Common) [4]; rate 0.0156 kg/ha)?
Answer: 0.0

Question: What about the “Preemergence herbicidal rating AMBEL” value (AMBEL (Ragweed, Common) [4]; rate 0.0313 kg/ha) of the same molecule?
Answer: 0.0

Question: And the “Preemergence herbicidal rating AMBEL” value (AMBEL (Ragweed, Common) [4]; rate 0.0625 kg/ha)?
Answer: 4.0

Question: What about the “Preemergence herbicidal rating AMBEL” value (AMBEL (Ragweed, Common) [4]; rate 0.1250 kg/ha) of the same molecule?
Answer: 9.0

Question: What about the “Preemergence herbicidal rating AMBEL” value (AMBEL (Ragweed, Common) [4]; rate 0.2500 kg/ha) of the same molecule?
Answer: 9.0

Question: What about the “Preemergence herbicidal rating CASOB” value (CASOB (Sicklepod); rate 0.0156 kg/ha) of the same molecule?
Answer: 0.0

Question: And the “Preemergence herbicidal rating CASOB” value (CASOB (Sicklepod); rate 0.0313 kg/ha)?
Answer: 0.0

Question: What about the “Preemergence herbicidal rating CASOB” value (CASOB (Sicklepod); rate 0.0625 kg/ha) of the same molecule?
Answer: 0.0

Question: And the “Preemergence herbicidal rating CASOB” value (CASOB (Sicklepod); rate 0.1250 kg/ha)?
Answer: 1.0

Question: What about the “Preemergence herbicidal rating CASOB” value (CASOB (Sicklepod); rate 0.2500 kg/ha) of the same molecule?
Answer: 1.0

Question: What about the “Preemergence herbicidal rating CHEAL” value ([5]; rate 0.0156 kg/ha) of the same molecule?
Answer: 3.0

Question: What about the “Preemergence herbicidal rating CHEAL” value ([5]; rate 0.0313 kg/ha) of the same molecule?
Answer: 9.0

Question: And the “Preemergence herbicidal rating CHEAL” value ([5]; rate 0.0625 kg/ha)?
Answer: 9.0

Question: And the “Preemergence herbicidal rating CHEAL” value ([5]; rate 0.1250 kg/ha)?
Answer: 9.0

Question: And the “Preemergence herbicidal rating CHEAL” value ([5]; rate 0.2500 kg/ha)?
Answer: 9.0

Question: And the “Preemergence herbicidal rating GALAP” value (GALAP (Galium); rate 0.0156 kg/ha)?
Answer: 0.0

Question: And the “Preemergence herbicidal rating GALAP” value (GALAP (Galium); rate 0.0313 kg/ha)?
Answer: 0.0

Question: What about the “Preemergence herbicidal rating GALAP” value (GALAP (Galium); rate 0.0625 kg/ha) of the same molecule?
Answer: 5.0

Question: And the “Preemergence herbicidal rating GALAP” value (GALAP (Galium); rate 0.1250 kg/ha)?
Answer: 7.0

Question: And the “Preemergence herbicidal rating GALAP” value (GALAP (Galium); rate 0.2500 kg/ha)?
Answer: 9.0

Question: What about the “Herbicidal rating CYPSE” value (CYPSE (Flatsedge) [6]; 0.0625 kg/ha) of the same molecule?
Answer: 0.0

Question: What about the “Herbicidal rating CYPSE” value (CYPSE (Flatsedge) [6]; 0.1250 kg/ha) of the same molecule?
Answer: 0.0

Question: And the “Herbicidal rating CYPSE” value (CYPSE (Flatsedge) [6]; 0.2500 kg/ha)?
Answer: 0.0

Question: And the “Herbicidal rating CYPIR” value (CYPIR (Rice Flatsedge); rate 0.0625 kg/ha)?
Answer: 2.0

Question: And the “Herbicidal rating CYPIR” value (CYPIR (Rice Flatsedge); rate 0.1250 kg/ha)?
Answer: 3.0

Question: What about the “Herbicidal rating CYPIR” value (CYPIR (Rice Flatsedge); rate 0.2500 kg/ha) of the same molecule?
Answer: 6.0

Question: What about the “Herbicidal rating CYPSE” value (CYPSE (Flatsedge) [7]; rate 0.0625 kg/ha) of the same molecule?
Answer: 0.0

Question: And the “Herbicidal rating CYPSE” value (CYPSE (Flatsedge) [7]; rate 0.1250 kg/ha)?
Answer: 0.0

Question: What about the “Herbicidal rating CYPSE” value (CYPSE (Flatsedge) [7]; rate 0.2500 kg/ha) of the same molecule?
Answer: 0.0
